Values quoted from earlier work in patent US6629995B1, “Camptothecin conjugates” (priority 2000, dated 2003).

Legend:
[1] = test system: human colon cancer xenografts; details: mouse, in vivo
[2] = administered intravenously
[3] = test system: nontumorigenic and tumorigenic human cells
human tumor xenografts = details: nude mice
[4] = test system: beta cells of the pancreas; details: in vivo

## CC[C@@]1(O)C(=O)OCc2c1cc1n(c2=O)Cc2cc3cc4c(cc3nc2-1)OCO4 [10,11 MD, 10,11-Methylendioxy-20(S)-Camptothecin]
[1]
  anticancer activity against human colon cancer xenografts: high anticancer activity

## CC[C@@](O)(C(=O)[O-])c1cc2n(c(=O)c1CO)Cc1cc3ccccc3nc1-2.[Na+] [CPT Na+, camptothecin sodium salt]
[2]
  potency in clinical trials: low potency
  toxicity in clinical trials: high toxicity

## CC[C@@]1(O)C(=O)OCc2c1cc1n(c2=O)Cc2cc3ccccc3nc2-1 [CPT, 20(S)-camptothecin]
[3]; nontumorigenic human cells in vitro
  effect on nontumorigenic cells: cytostatic
[3]; tumorigenic human cells in vitro
  effect on tumorigenic cells: cytotoxic
other
  solubility in water: insoluble in water

## CC[C@@]1(O)C(=O)OCc2c1cc1n(c2=O)Cc2cc3c(N)cccc3nc2-1 [Example 9AC, 9-Amino-20(S)-Camptothecin]
[1]
  anticancer activity against human colon cancer xenografts: high anticancer activity

## CC[C@@]1(O)C(=O)OCc2c1cc1n(c2=O)Cc2cc3c([N+](=O)[O-])cccc3nc2-1 [Example 9NC, 9-nitrocamptothecin]
Human tumor xenografts
  activity against human tumor xenograft models: high activity

## CN(N=O)C(=O)N[C@@H]1[C@@H](O)[C@H](O)[C@@H](CO)O[C@@H]1O [Streptozoticin]
[4]
  accumulation in tissue: preferentially accumulate in the beta cells of the pancreas
